From patent US20260209222A1, “CBL-B MODULATORS AND USES THEREOF” (Nimbus Clio, Inc., priority 2022, published 2026)

How the values were obtained:
[1] = target: T1, Recombinant human Cbl-b (aa 36-427) (Homo sapiens, UniProt Q13191); experiment: Cbl-b Biochemical Assay (TR-FRET); settings: 6 nM Cbl-b, 1-2.5 nM Src-Zap70, 0.5 mM ATP; HTRF signal at 520 nm
T1 construct: Recombinant human Cbl-b (aa 36-427) was expressed in E coli; biotin (biotinylated in vitro); made in house; host or cells: E. coli
Method: Cbl-b Biochemical Assay (TR-FRET)
Recombinant human Cbl-b (aa 36-427) was expressed in E coli, purified and biotinylated in vitro. The protein was diluted to 12 nM in freshly prepared assay buffer consisting of 50 mM HEPES, pH 7.0, 100 mM NaCl, 5 mM MgCl2, 0.01% Triton-X 100, 0.01% BSA and 1 mM DTT. Recombinant human Src (aa 254-536)-GSSGSS-Zap-70 (aa 281-297) fusion protein was expressed in E coli and purified. Protein was diluted in assay buffer to 2-5 nM and supplemented with ATP to 1 mM. Fluorescein-BODIPY labeled UBED2D(C85K)-Ub was prepared by conjugating ubiquitin (Ub) labeled at its N-terminus with Fluorescein-BODIPY maleimide (ThermoFisher Catalog no B10250) to E coli expressed and purified UBED2D(C85K) [see Dou et al Nature Structural and Molecular Biology 8: 982-987, 2013]. Recombinant human UBE2D2(C85K) was expressed in E coli, purified and ubiquitinated and Bodipy labelled in vitro. Protein was diluted to 200 nM in assay buffer without MgCl2 (or Cisbio PPI buffer). Streptavidin-Terbium was added to 2 nM and EDTA to 10 mM, to provide a binding assay mix. Compounds were dissolved in DMSO and diluted to prepare a ten-point dilution series. 100 nl of each compound concentration was dispensed in duplicate in a 384 well black assay plate using acoustic dispensing. Wells for maximum signal controls received 100 nl of DMSO only and wells for minimum signal controls received 100 nl of a reference inhibitor compound at a final assay concentration of 100 mM to produce 100% inhibition. 5 μl of diluted Cbl-b enzyme was added to all wells of the assay plate and incubated at RT for 30-60 min. The enzyme assay was initiated by addition of 5 μl of Src-Zap/ATP mix to all wells, and the plate incubated at RT for 60 min. The enzyme reaction was terminated and the binding reaction was initiated by adding 10p of binding assay mix to all wells and incubating the plate at RT for 60 min prior to assay read. Final assay conditions consisted of 6 nM Cbl-b, 1-2.5 nM Src-Zap70, 0.5 mM ATP, 1% (v/v) DMSO (enzyme reaction) and 100 nM UBE2D2(C85K)-Ub-FL-BODIPY, 5 mM EDTA, 1 nM Streptavidin-Tb (binding reaction). The HTRF assay signal was measured at 520 nm on an Envision plate reader, with reference signal at 485 or 620 nm. Data was normalized using maximum and minimum assay controls: % Inhibition=100−(100*((maximum control)−unknown)/(maximum control−minimum control)). A 4-parameter dose-response equation was used to fit the normalized dose-response data and derive an IC50 for test compounds.

[2] = tested on: Recombinant human c-Cbl (aa 47-435); experiment: c-Cbl Biochemical Assay (TR-FRET); settings: ratio from the Cbl-b and c-Cbl TR-FRET biochemical assays
Method: c-Cbl Biochemical Assay (TR-FRET)
Recombinant human c-Cbl (aa 47-435) was expressed in E coli, purified and biotinylated in vitro. The protein was diluted to 12 nM in freshly prepared assay buffer consisting of 50 mM HEPES, pH 7.0, 100 mM NaCl, 5 mM MgCl2, 0.01% Triton-X 100, 0.01% BSA and 1 mM DTT. Recombinant human Src (aa 254-536)-GSSGSS-Zap-70 (aa 281-297) fusion protein was expressed in E coli and purified. Protein was diluted in assay buffer to 5-20 nM and ATP was added to 1 mM. Recombinant human UBE2D2(C85K) was expressed in E coli, purified and ubiquitinated and Bodipy labelled in vitro. Protein was diluted to 200 nM in assay buffer without MgCl2 (or Cisbio PPI buffer). Streptavidin-Terbium was added to 2 nM and EDTA to 10 mM, to provide a binding assay mix. Compounds were dissolved in DMSO and diluted to prepare a ten-point half log dilution series. 100 nl of each compound concentration was dispensed in duplicate in a 384 well black assay plate using acoustic dispensing. Wells for maximum signal controls received 100 nl of DMSO only and wells for minimum controls received 100 nl of a reference inhibitor compound at a final assay concentration of 100 mM to produce 100% inhibition. 5 μl of diluted c-Cbl enzyme was added to all wells of the assay plate and incubated at RT for 30 min. The enzyme assay was initiated by addition of 5 d of Src-Zap/ATP mix to all wells, and the plate incubated at RT for 60-90 min. The enzyme reaction was terminated and the binding reaction was initiated by adding 10p of binding assay mix to all wells and incubating the plate at RT for 60 min prior to assay read. Final assay conditions consisted of 6 nM c-Cbl. 2.5-10 nM Src-Zap70, 0.5 mM ATP. 1% (v/v) DMSO (enzyme reaction) and 100 nM UBE2D2(C85K)-Ub-FL-BODIPY, 5 mM EDTA, 1 nM Streptavidin-Tb (binding reaction). The HTRF assay signal was measured at 520 nm on an Envision plate reader, with reference signal at 485 or 620 nm. Data was normalized using maximum and minimum assay controls: % Inhibition=100−(100*((maximum control)−unknown)/(maximum control−minimum control)). A 4-parameter dose-response equation was used to fit the normalized dose-response data and derive an IC50 for test compounds.

T1 sequence (Q13191 36-427): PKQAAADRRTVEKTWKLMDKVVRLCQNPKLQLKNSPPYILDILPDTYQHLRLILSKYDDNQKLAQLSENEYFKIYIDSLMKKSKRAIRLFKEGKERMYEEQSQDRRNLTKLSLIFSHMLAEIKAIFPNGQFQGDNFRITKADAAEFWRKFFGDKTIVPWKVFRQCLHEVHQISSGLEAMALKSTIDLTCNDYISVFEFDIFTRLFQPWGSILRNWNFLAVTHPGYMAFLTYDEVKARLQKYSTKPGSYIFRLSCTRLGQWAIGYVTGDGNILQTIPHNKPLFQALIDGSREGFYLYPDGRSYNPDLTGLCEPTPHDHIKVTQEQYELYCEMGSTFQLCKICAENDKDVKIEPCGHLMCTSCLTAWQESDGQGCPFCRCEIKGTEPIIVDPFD

SMILES | IC50 [1] [µM] | Cbl-b/c-Cbl Selectivity [2]
C[C@H]1CCCN(Cc2cc(C(F)(F)F)c3oc(-c4cccc([C@H](c5nncn5C)C5CCC5)c4)nc3c2)C1 (single isomer, unassigned) [I-33] | < 0.2 | 10
C[C@H]1CCCN(Cc2cc(C(F)(F)F)c3oc(-c4cccc([C@H](c5nncn5C)[C@H]5C[C@@H](C(F)(F)F)C5)c4)nc3c2)C1 (single isomer, unassigned) [I-59] | < 0.2 | 19
CCNc1cc(-c2cc(C#N)ccc2-c2nncn2C)cc(-c2nc3cc(CNCC4(C#N)CCCC4)cc(C(F)(F)F)c3o2)n1 [I-4] | 0.2 to 5 | 8
CC(C)NCc1cc(C(F)(F)F)c2oc(-c3cccc([C@]4(c5nncn5C)C[C@@H](C)C4)c3)nc2c1 [I-5, Isopropyl[(2-{3-[(1r,3s)-3-methyl-1-(4-methyl-1,2,4-triazol-3-yl)cyclobutyl]phenyl}-7-(trifluoromethyl)-1,3-benzoxazol-5-yl)methyl]amine] | 0.2 to 5 | 12
CO[C@H]1CCCN(Cc2cc(C(F)(F)F)c3oc(-c4cccc([C@]5(c6nncn6C)C[C@@H](C)C5)c4)nc3c2)C1 [I-6, 5-{1[(3S)-3-Methoxypiperidin-1-yl]methyl}-2-{3-[(1r,3s)-3-methyl-1-(4-methyl-1,2,4-triazol-3-yl)cyclobutyl]phenyl}-7-(trifluoromethyl)-1,3-benzoxazole] | 0.2 to 5 | 10
CO[C@@H]1CCCN(Cc2cc(C(F)(F)F)c3oc(-c4cccc([C@]5(c6nncn6C)C[C@@H](C)C5)c4)nc3c2)C1 [I-7] | 0.2 to 5 | 12
Cn1cnnc1[C@]1(c2cccc(-c3nc4cc(CN5CCC6(CC6)C5)cc(C(F)(F)F)c4o3)c2)C[C@H](C)C1 [I-9, 5-{5-Azaspiro[2.4]heptan-5-ylmethyl}-2-{3-[(1r,3s)-3-methyl-1-(4-methyl-1,2,4-triazol-3-yl)cyclobutyl]phenyl}-7-(trifluoromethyl)-1,3-benzoxazole] | < 0.2 | 18
CN(Cc1cc(C(F)(F)F)c2oc(-c3cccc([C@]4(c5nncn5C)C[C@@H](C)C4)c3)nc2c1)CC1CCC1 [I-10, 1-Cyclobutyl-N-methyl-N-((2-(3-((1s,3s)-3-methyl-1-(4-methyl-4H-1,2,4-triazol-3-yl)cyclobutyl)phenyl)-7-(trifluoromethyl)benzo[d]oxazol-5-yl)methyl)methanamine] | < 0.2 | 10
Cn1cnnc1-c1cc(F)ccc1-c1cc(NCCC#N)nc(-c2nc3cc(CN4CCC5(CC5)C4)cc(C(F)(F)F)c3o2)c1 [I-12, 3-{[6-(5-{5-azaspiro[2.4]heptan-5-ylmethyl}-7-(trifluoromethyl)-1,3-benzoxazol-2-yl)-4-[4-fluoro-2-(4-methyl-1,2,4-triazol-3-yl)phenyl]pyridin-2-yl]amino}propanenitrile] | < 0.2 | 7
Cn1cnnc1-c1cc(F)ccc1-c1cc(NCCC#N)nc(-c2nc3cc(CO)cc(C(F)(F)F)c3o2)c1 [I-14] | 0.2 to 5 | 7
Cn1cnnc1-c1ccc(C#N)cc1-c1cc(NCCC#N)nc(-c2nc3cc(CNCC(C)(C)O)cc(C(F)(F)F)c3o2)c1 [I-15, 3-{2-[(2-Cyanoethyl)amino]-6-(5-{[(2-hydroxy-2-methylpropyl)amino]methyl}-7-(trifluoromethyl)-1,3-benzoxazol-2-yl)pyridin-4-yl}-4-(4-methyl-1,2,4-triazol-3-yl)benzonitrile] | < 0.2 | 7
Cn1cnnc1-c1ccc(C#N)cc1-c1cc(NCCC#N)nc(-c2nc3cc(CN4CCC5(CC5)C4)cc(C(F)(F)F)c3o2)c1 [I-16, 3-[2-(5-{5-azaspiro[2.4]heptan-5-ylmethyl}-7-(trifluoromethyl)-1,3-benzoxazol-2-yl)-6-[(2-cyanoethyl)amino]pyridin-4-yl]-4-(4-methyl-1,2,4-triazol-3-yl)benzonitrile] | 0.2 to 5 | 7
Cn1cnnc1-c1ccc(C#N)cc1-c1cc(NCC2(CC#N)CC2)nc(-c2nc3cc(CN[C@@H]4CCC[C@@H]4O)cc(C(F)(F)F)c3o2)c1 [I-27] | < 0.2 | 1
Cn1cnnc1-c1cc(F)ccc1-c1cc(NC[C@@H](O)CC#N)nc(-c2nc3cc(CN4CCC5(CC5)C4)cc(C(F)(F)F)c3o2)c1 [I-29] | < 0.2 | 14
C[C@H]1CCCN(Cc2cc(C(F)(F)F)c3oc(-c4cccc([C@@H](c5nncn5C)C5CCC5)c4)nc3c2)C1 [I-34] | > 5 | 4
C[C@H]1CCCN(Cc2cc(C(F)(F)F)c3oc(-c4cccc(C(c5nncn5C)C5CCC5)c4)nc3c2)C1 (stereo partly shown) [I-48] | < 0.2 | 9
CN(Cc1cc(C(F)(F)F)c2oc(-c3cc(-c4cc(C#N)ccc4-c4nncn4C)cc(NCC4(CC#N)CC4)n3)nc2c1)[C@@H]1CCC[C@@H]1O [I-49] | < 0.2 | 3
Cn1cnnc1-c1ccc(C#N)cc1-c1cc(NC[C@@H](O)CC#N)nc(-n2cc3c(C(F)(F)F)cc(CN4CCC5(CCC5)C4)cn3c2=O)c1 [I-50, (S)-3-(2-(6-((6-Azaspiro[3.4]octan-6-yl)methyl)-3-oxo-8-(trifluoromethyl)imidazo[1,5-a]pyridin-2(3H)-yl)-6-((3-cyano-2-hydroxypropyl)amino)pyridin-4-yl)-4-(4-methyl-4H-1,2,4-triazol-3-yl)benzonitrile] | < 0.2 | 21
C[C@H]1CCCN(Cc2cc(C(F)(F)F)c3oc(-c4cccc(C(c5nncn5C)C5COC5)c4)nc3c2)C1 (stereo partly shown) [I-51] | 0.2 to 5 | 7
C[C@H]1CCCN(Cc2cc(C(F)(F)F)c3oc(-c4cccc([C@H](c5nncn5C)C5COC5)c4)nc3c2)C1 [I-52] | 0.2 to 5 | 7
C[C@H]1CCCN(Cc2cc(C(F)(F)F)c3oc(-c4cccc([C@@H](c5nncn5C)C5COC5)c4)nc3c2)C1 [I-53] | > 5 | 1
Cn1cnnc1[C@@H](c1cccc(-c2nc3cc(CN4CCC5(CCC5)C4)cc(C(F)(F)F)c3o2)c1)[C@H]1C[C@H](C(F)(F)F)C1 [I-61] | > 5 | 
